Experiments:
[1] = cells; conditions: Homo sapiens, HCT-116, 48 h
Description: Cytotoxicity against human HCT116 cells after 48 hrs by sulforhodamine B assay

[2] = cells; conditions: Homo sapiens, HCC 2998, 48 h
Description: Cytotoxicity against human HCC2998 cells after 48 hrs by sulforhodamine B assay

[3] = cells; conditions: Homo sapiens, SNB-19, 48 h
Description: Cytotoxicity against human SNB19 cells after 48 hrs by sulforhodamine B assay

[4] = tested on: T47D; experiment: cells; conditions: Homo sapiens, 48 h
Description: Cytotoxicity against human T47D cells after 48 hrs by sulforhodamine B assay

[5] = cells; conditions: Homo sapiens, PC-3, 48 h
Description: Cytotoxicity against human PC3 cells after 48 hrs by sulforhodamine B assay

[6] = tested on: M14; experiment: cells; conditions: Homo sapiens, M14, 48 h
Description: Cytotoxicity against human M14 cells after 48 hrs by sulforhodamine B assay

[7] = tested on: U-251; experiment: cells; conditions: Homo sapiens, U-251, 48 h
Description: Cytotoxicity against human U251 cells after 48 hrs by sulforhodamine B assay

[8] = cells; conditions: Homo sapiens, SW-620, 48 h
Description: Cytotoxicity against human SW620 cells after 48 hrs by sulforhodamine B assay

[9] = cells; conditions: Homo sapiens, RPMI-8226, 48 h
Description: Cytotoxicity against human RPMI8226 cells after 48 hrs by sulforhodamine B assay

[10] = tested on: SK-MEL-28; experiment: cells; conditions: Homo sapiens, SK-MEL-28, 48 h
Description: Cytotoxicity against human SK-MEL-28 cells after 48 hrs by sulforhodamine B assay

[11] = tested on: EKVX; experiment: cells; conditions: Homo sapiens, 48 h
Description: Cytotoxicity against human EKVX cells after 48 hrs by sulforhodamine B assay

[12] = tested on: CCRF-CEM; experiment: cells; conditions: Homo sapiens, 48 h
Description: Cytotoxicity against human CCRF-CEM cells after 48 hrs by sulforhodamine B assay

[13] = cells; conditions: Homo sapiens, HOP-62, 48 h
Description: Cytotoxicity against human HOP62 cells after 48 hrs by sulforhodamine B assay

[14] = tested on: NCI-H23; experiment: cells; conditions: Homo sapiens, NCI-H23, 48 h
Description: Cytotoxicity against human NCI-H23 cells after 48 hrs by sulforhodamine B assay

[15] = cells; conditions: Homo sapiens, UACC-62, 48 h
Description: Cytotoxicity against human UACC62 cells after 48 hrs by sulforhodamine B assay

[16] = cells; conditions: Homo sapiens, CAKI-1, 48 h
Description: Cytotoxicity against human Caki1 cells after 48 hrs by sulforhodamine B assay

[17] = tested on: ACHN; experiment: cells; conditions: Homo sapiens, 48 h
Description: Cytotoxicity against human ACHN cells after 48 hrs by sulforhodamine B assay

[18] = tested on: MCF7; experiment: cells; conditions: Homo sapiens, MCF7, 48 h
Description: Cytotoxicity against human MCF7 cells after 48 hrs by sulforhodamine B assay

[19] = cells; conditions: Homo sapiens, RXF 393, 48 h
Description: Cytotoxicity against human RXF393 cells after 48 hrs by sulforhodamine B assay

[20] = cells; conditions: Homo sapiens, TK-10, 48 h
Description: Cytotoxicity against human TK10 cells after 48 hrs by sulforhodamine B assay

[21] = tested on: MDA-MB-468; experiment: cells; conditions: Homo sapiens, MDA-MB-468, 48 h
Description: Cytotoxicity against human MDA-MB-468 cells after 48 hrs by sulforhodamine B assay

[22] = cells; conditions: Homo sapiens, OVCAR-3, 48 h
Description: Cytotoxicity against human OVCAR3 cells after 48 hrs by sulforhodamine B assay

[23] = tested on: SR; experiment: Cytotoxicity against human SR cells after 48 hrs by sulforhodamine B assay; type: functional
[24] = cells; conditions: Homo sapiens, SF-295, 48 h
Description: Cytotoxicity against human SF295 cells after 48 hrs by sulforhodamine B assay

[25] = tested on: MDA-MB-435; experiment: cells; conditions: Homo sapiens, MDA-MB-435, 48 h
Description: Cytotoxicity against human MDA-MB-435 cells after 48 hrs by sulforhodamine B assay

[26] = cells; conditions: Homo sapiens, OVCAR-8, 48 h
Description: Cytotoxicity against human OVCAR8 cells after 48 hrs by sulforhodamine B assay

[27] = cells; conditions: Homo sapiens, LOX IMVI, 48 h
Description: Cytotoxicity against human LOXIMVI cells after 48 hrs by sulforhodamine B assay

[28] = cells; conditions: Homo sapiens, UO-31, 48 h
Description: Cytotoxicity against human UO31 cells after 48 hrs by sulforhodamine B assay

[29] = tested on: HT-29; experiment: cells; conditions: Homo sapiens, HT-29, 48 h
Description: Cytotoxicity against human HT-29 cells after 48 hrs by sulforhodamine B assay

[30] = cells; conditions: Homo sapiens, OVCAR-5, 48 h
Description: Cytotoxicity against human OVCAR5 cells after 48 hrs by sulforhodamine B assay

[31] = tested on: NCI-H460; experiment: cells; conditions: Homo sapiens, NCI-H460, 48 h
Description: Cytotoxicity against human NCI-H460 cells after 48 hrs by sulforhodamine B assay

[32] = cells; conditions: Homo sapiens, OVCAR-4, 48 h
Description: Cytotoxicity against human OVCAR4 cells after 48 hrs by sulforhodamine B assay

[33] = tested on: A498; experiment: cells; conditions: Homo sapiens, A498, 48 h
Description: Cytotoxicity against human A498 cells after 48 hrs by sulforhodamine B assay

[34] = cells; conditions: Homo sapiens, SK-OV-3, 48 h
Description: Cytotoxicity against human SKOV3 cells after 48 hrs by sulforhodamine B assay

[35] = cells; conditions: Homo sapiens, DU-145, 48 h
Description: Cytotoxicity against human DU145 cells after 48 hrs by sulforhodamine B assay

[36] = tested on: Malme-3M; experiment: cells; conditions: Homo sapiens, 48 h
Description: Cytotoxicity against human MALME-3M cells after 48 hrs by sulforhodamine B assay

[37] = cells; conditions: Homo sapiens, SF-539, 48 h
Description: Cytotoxicity against human SF539 cells after 48 hrs by sulforhodamine B assay

O=C1Nc2ccccc2/C1=C/c1cn(CC(O)Cn2cc(/C=C3\C(=O)Nc4ccccc43)c3ccccc32)c2ccccc12 (stereo unspecified)
GI50 [1]: 1.6 µM
TGI [1]: 4.1 µM
CC50 ([1]; read-out: LC50): 12.5 µM
GI50 [2]: 2.2 µM
TGI [2]: 5.2 µM
CC50 ([2]; read-out: LC50): 17.3 µM
GI50 [3]: 1.2 µM
TGI [3]: 3.8 µM
CC50 ([3]; read-out: LC50): > 100 µM
GI50 [4]: 1.6 µM
TGI [4]: 3.8 µM
GI50 [5]: 1.2 µM
TGI [5]: 2.6 µM
CC50 ([5]; read-out: LC50): 5.8 µM
GI50 [6]: 1.3 µM
TGI [6]: 2.8 µM
CC50 ([6]; read-out: LC50): 6.02 µM
GI50 [7]: 1.5 µM
TGI [7]: 2.9 µM
CC50 ([7]; read-out: LC50): 5.6 µM
GI50 [8]: 1.3 µM
TGI [8]: 3.4 µM
CC50 ([8]; read-out: LC50): 9.04 µM
GI50 [9]: 2.1 µM
TGI [9]: 5.4 µM
CC50 ([9]; read-out: LC50): > 100 µM
GI50 [10]: 1.7 µM
TGI [10]: 3.5 µM
CC50 ([10]; read-out: LC50): 6.9 µM
GI50 [11]: 1.8 µM
TGI [11]: 3.7 µM
CC50 ([11]; read-out: LC50): 7.8 µM
GI50 [12]: 2.8 µM
TGI [12]: 13.4 µM
CC50 ([12]; read-out: LC50): > 100 µM
GI50 [13]: 1.4 µM
TGI [13]: 3.06 µM
CC50 ([13]; read-out: LC50): 6.6 µM
GI50 [14]: 1.5 µM
TGI [14]: 3.3 µM
CC50 ([14]; read-out: LC50): 7.2 µM
GI50 [15]: 1.6 µM
TGI [15]: 3.1 µM
CC50 ([15]; read-out: LC50): 6.1 µM
GI50 [16]: 1.6 µM
TGI [16]: 3.3 µM
CC50 ([16]; read-out: LC50): 7.1 µM
GI50 [17]: 1.6 µM
TGI [17]: 3.9 µM
CC50 ([17]; read-out: LC50): 9.3 µM
GI50 [18]: 0.45 µM
TGI [18]: 1.8 µM
GI50 [19]: 2.04 µM
TGI [19]: 3.7 µM
CC50 ([19]; read-out: LC50): 6.9 µM
GI50 [20]: 2.7 µM
TGI [20]: 5.4 µM
CC50 ([20]; read-out: LC50): 14.4 µM
GI50 [21]: 2.03 µM
TGI [21]: 3.7 µM
CC50 ([21]; read-out: LC50): 6.9 µM
GI50 [22]: 1.6 µM
TGI [22]: 3.3 µM
CC50 ([22]; read-out: LC50): 6.6 µM
GI50 [23]: 0.39 µM
CC50 ([23]; read-out: LC50 (the source's name)): > 100 µM
GI50 [24]: 1.6 µM
TGI [24]: 3.2 µM
CC50 ([24]; read-out: LC50): 6.4 µM
GI50 [25]: 1.8 µM
TGI [25]: 3.4 µM
CC50 ([25]; read-out: LC50): 6.6 µM
GI50 [26]: 2.3 µM
TGI [26]: 4.7 µM
GI50 [27]: 0.32 µM
TGI [27]: 1.3 µM
CC50 ([27]; read-out: LC50): 4.1 µM
GI50 [28]: 1.2 µM
TGI [28]: 2.9 µM
CC50 ([28]; read-out: LC50): 6.7 µM
GI50 [29]: 1.4 µM
TGI [29]: 3.5 µM
CC50 ([29]; read-out: LC50): 8.7 µM
GI50 [30]: 3.4 µM
TGI [30]: 4.5 µM
CC50 ([30]; read-out: LC50): 43.6 µM
GI50 [31]: 0.48 µM
TGI [31]: 1.8 µM
CC50 ([31]; read-out: LC50): 6.6 µM
GI50 [32]: 1.8 µM
TGI [32]: 3.9 µM
GI50 [33]: 2.2 µM
TGI [33]: 4.1 µM
CC50 ([33]; read-out: LC50): 7.6 µM
GI50 [34]: 1.6 µM
TGI [34]: 3.6 µM
CC50 ([34]; read-out: LC50): 8.1 µM
GI50 [35]: 1.5 µM
TGI [35]: 2.9 µM
CC50 ([35]; read-out: LC50): 5.6 µM
GI50 [36]: 1.5 µM
TGI [36]: 3.2 µM
CC50 ([36]; read-out: LC50): 7.1 µM
GI50 [37]: 1.5 µM
TGI [37]: 3.1 µM
CC50 ([37]; read-out: LC50): 6.1 µM
